# From patent US20250114338A1, “TETRAHYDRO-PYRIDO[3,4-b]INDOLE ESTROGEN RECEPTOR MODULATORS AND USES THEREOF” (Genentech, Inc., priority 2014, published 2025)
# Test system: ER-alpha MCF7
# Test: ER-alpha MCF7 HCS EC50; stated as measured by in vitro cell proliferation assays of Examples 902 and 903
# Assay type: cell-based
# Conditions: Homo sapiens, MCF7, MCF7 cells; Table 2
# Method in brief: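 MCF7 cells seeded 1000-2000 cells/well for 16 h, then treated with nine-point 1:2 DMSO dilution series in quadruplicate at 37 °C, 5% CO2 for 4 days. Viable cells quantified by CellTiter-Glo ATP luminescence; EC50 calculated. Controls: fulvestrant at final 100 nM, DMSO 0.2% v/v.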
row,SMILES,EC50 [nM]
1,"C[C@@H]1Cc2c([nH]c3ccccc23)[C@@H](c2c(F)cc(OC3CN(CCCF)C3)cc2F)N1CC(C)(C)C#N [Example 316, 3-[(1R,3R)-1-[2,6-difluoro-4-[1-(3-fluoropropyl)azetidin-3-yl]oxy-phenyl]-3-methyl-1,3,4,9-tetrahydropyrido[3,4-b]indol-2-yl]-2,2-dimethyl-propanenitrile]",0.0724
2,"C[C@@H]1Cc2c([nH]c3ccccc23)[C@@H](c2c(F)cc(OC3CN(CC=C(F)F)C3)cc2F)N1CC(C)(C)F [Example 317, (1R,3R)-1-[4-[1-(3,3-difluoroallyl)azetidin-3-yl]oxy-2,6-difluoro-phenyl]-2-(2-fluoro-2-methyl-propyl)-3-methyl-1,3,4,9-tetrahydropyrido[3,4-b]indole]",0.181
3,"C[C@@H]1Cc2c([nH]c3ccccc23)[C@@H](c2c(F)cc(OCCN3CC(CF)C3)cc2F)N1C[C@@H](CO)C(F)(F)F [Example 318, (S)-2-(((1R,3R)-1-(2,6-difluoro-4-(2-(3-(fluoromethyl)azetidin-1-yl)ethoxy)phenyl)-3-methyl-1,3,4,9-tetrahydro-2H-pyrido[3,4-b]indol-2-yl)methyl)-3,3,3-trifluoropropan-1-ol]",1
4,"C[C@@H]1Cc2c([nH]c3ccccc23)[C@@H](c2c(F)cc(OCCN3CC(CF)C3)cc2F)N1C[C@H](CO)C(F)(F)F [Example 319, (R)-2-(((1R,3R)-1-(2,6-difluoro-4-(2-(3-(fluoromethyl)azetidin-1-yl)ethoxy)phenyl)-3-methyl-1,3,4,9-tetrahydro-2H-pyrido[3,4-b]indol-2-yl)methyl)-3,3,3-trifluoropropan-1-ol]",0.43
5,"C[C@@H]1Cc2c([nH]c3ccccc23)[C@@H](c2c(F)cc(NCCN3CC(CF)C3)cc2F)N1CC(C)(F)CO (stereo partly drawn) [Example 320, 3-((1R,3R)-1-(2,6-difluoro-4-((2-(3-(fluoromethyl)azetidin-1-yl)ethyl)amino)phenyl)-3-methyl-1,3,4,9-tetrahydro-2H-pyrido[3,4-b]indol-2-yl)-2-fluoro-2-methylpropan-1-ol]",0.27

# Continued, values first:
row,EC50 [nM],SMILES
1,0.222,"C[C@@H]1Cc2c([nH]c3ccccc23)[C@@H](c2c(F)cc(NCCN3CC(CF)C3)cc2F)N1CC(C)(C)F [Example 321, 3,5-difluoro-N-[2-[3-(fluoromethyl)azetidin-1-yl]ethyl]-4-[(1R,3R)-2-(2-fluoro-2-methyl-propyl)-3-methyl-1,3,4,9-tetrahydropyrido[3,4-b]indol-1-yl]aniline]"
2,0.0253,"C[C@@H]1Cc2c([nH]c3ccccc23)[C@@H](c2ccc(NCCN3CC(CF)C3)cc2F)N1CC(C)(C)F [Example 322, 3-fluoro-N-[2-[3-(fluoromethyl)azetidin-1-yl]ethyl]-4-[(1R,3R)-2-(2-fluoro-2-methyl-propyl)-3-methyl-1,3,4,9-tetrahydropyrido[3,4-b]indol-1-yl]aniline]"
3,0.215,"C[C@@H]1Cc2c([nH]c3ccccc23)[C@@H](c2ccc(NCCN3CC(CF)C3)cc2)N1CC(C)(C)F [Example 323, N-[2-[3-(fluoromethyl)azetidin-1-yl]ethyl]-4-[(1R,3R)-2-(2-fluoro-2-methyl-propyl)-3-methyl-1,3,4,9-tetrahydropyrido[3,4-b]indol-1-yl]aniline]"
4,0.198,"CCS(=O)(=O)N1[C@H](c2ccc(OCCN3CC(CF)C3)cc2)c2[nH]c3ccccc3c2C[C@H]1C [Example 324, (1R,3R)-2-ethylsulfonyl-1-[4-[2-[3-(fluoromethyl)azetidin-1-yl]ethoxy]phenyl]-3-methyl-1,3,4,9-tetrahydropyrido[3,4-b]indole]"
5,1,"C[C@@H]1Cc2c([nH]c3ccccc23)[C@@H](c2ccc(NCCN3CC(CF)C3)cc2)N1S(C)(=O)=O [Example 325, N-[2-[3-(fluoromethyl)azetidin-1-yl]ethyl]-4-[(1R,3R)-3-methyl-2-methylsulfonyl-1,3,4,9-tetrahydropyrido[3,4-b]indol-1-yl]aniline]"
